Source: patent US20240269139A1, “COMPOUNDS FOR TARGETED PROTEIN DEGRADATION OF KINASES” (DANA-FARBER CANCER INSTITUTE, INC., priority 2020, published 2024)
Where two headings read alike, the source gives them in different places.

Assays:
[1] = test system: extended human kinome (kinase-like proteins); experiment: Whole cell quantitative proteomics: extended kinome hits; conditions: Accession Q16875-4; experiment wp117
[2] = assay type: cell-based, H. sapiens; conditions: MOLT-4, 1 μM, 5 h, 5 μM CB-5083
[3] = target: protein kinases (human kinome) (Homo sapiens, UniProt Q14680); assay type: cell-based; conditions: experiment wp131
protein kinases (human kinome) (Homo sapiens, UniProt Q14680), sequence (Q14680 whole entry): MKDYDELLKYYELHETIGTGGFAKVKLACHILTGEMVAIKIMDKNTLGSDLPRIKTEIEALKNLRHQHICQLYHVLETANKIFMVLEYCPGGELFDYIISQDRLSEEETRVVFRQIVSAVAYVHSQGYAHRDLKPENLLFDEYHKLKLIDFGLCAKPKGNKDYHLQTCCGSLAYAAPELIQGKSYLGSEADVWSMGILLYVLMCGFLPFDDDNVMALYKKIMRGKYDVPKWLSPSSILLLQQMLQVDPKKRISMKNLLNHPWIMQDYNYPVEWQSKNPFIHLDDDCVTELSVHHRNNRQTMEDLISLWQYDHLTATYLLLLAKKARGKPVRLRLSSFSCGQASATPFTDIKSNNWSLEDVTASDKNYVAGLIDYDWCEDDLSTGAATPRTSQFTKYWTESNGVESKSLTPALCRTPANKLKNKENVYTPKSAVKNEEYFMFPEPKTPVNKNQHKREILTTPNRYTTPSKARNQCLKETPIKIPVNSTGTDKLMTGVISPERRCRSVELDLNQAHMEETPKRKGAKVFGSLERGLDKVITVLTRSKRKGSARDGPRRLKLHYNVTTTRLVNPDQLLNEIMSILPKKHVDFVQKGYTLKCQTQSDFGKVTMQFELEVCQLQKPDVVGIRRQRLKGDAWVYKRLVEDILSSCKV

[4] = target: protein kinases (human kinome) (Homo sapiens, UniProt P48736); assay type: cell-based
protein kinases (human kinome) (Homo sapiens, UniProt P48736), sequence (P48736 whole entry): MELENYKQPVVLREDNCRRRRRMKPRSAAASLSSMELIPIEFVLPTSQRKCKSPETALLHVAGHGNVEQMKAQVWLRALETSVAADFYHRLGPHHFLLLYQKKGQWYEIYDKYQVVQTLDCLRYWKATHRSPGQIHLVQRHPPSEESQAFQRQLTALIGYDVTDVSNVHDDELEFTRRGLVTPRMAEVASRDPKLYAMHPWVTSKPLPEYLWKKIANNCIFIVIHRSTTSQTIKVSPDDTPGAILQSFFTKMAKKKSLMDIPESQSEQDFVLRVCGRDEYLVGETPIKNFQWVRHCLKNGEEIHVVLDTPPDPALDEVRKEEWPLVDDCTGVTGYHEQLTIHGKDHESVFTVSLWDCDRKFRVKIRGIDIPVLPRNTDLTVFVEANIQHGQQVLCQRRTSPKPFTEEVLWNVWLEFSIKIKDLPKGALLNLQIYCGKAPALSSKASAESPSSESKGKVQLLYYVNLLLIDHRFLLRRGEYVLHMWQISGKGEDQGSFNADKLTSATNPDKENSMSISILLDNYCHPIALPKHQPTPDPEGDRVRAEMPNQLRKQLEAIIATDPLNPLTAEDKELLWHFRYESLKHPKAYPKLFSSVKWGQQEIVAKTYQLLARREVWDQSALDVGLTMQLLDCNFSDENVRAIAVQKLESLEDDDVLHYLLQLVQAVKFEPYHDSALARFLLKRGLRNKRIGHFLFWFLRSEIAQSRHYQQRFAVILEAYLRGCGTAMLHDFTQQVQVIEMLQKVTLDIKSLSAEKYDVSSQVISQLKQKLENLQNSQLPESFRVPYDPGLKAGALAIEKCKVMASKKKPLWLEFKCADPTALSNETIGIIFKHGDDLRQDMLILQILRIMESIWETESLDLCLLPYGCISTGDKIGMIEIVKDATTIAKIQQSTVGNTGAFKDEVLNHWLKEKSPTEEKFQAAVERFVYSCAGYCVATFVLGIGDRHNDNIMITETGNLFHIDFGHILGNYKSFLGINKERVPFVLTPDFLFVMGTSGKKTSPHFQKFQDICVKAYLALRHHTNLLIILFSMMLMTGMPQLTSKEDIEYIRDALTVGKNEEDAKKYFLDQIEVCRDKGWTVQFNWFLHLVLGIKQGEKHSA

[5] = target: protein kinases (human kinome) (Homo sapiens, UniProt P29317); assay type: cell-based; conditions: for logFC: EPHA2 (P29317)
protein kinases (human kinome) (Homo sapiens, UniProt P29317), sequence (P29317 24-976): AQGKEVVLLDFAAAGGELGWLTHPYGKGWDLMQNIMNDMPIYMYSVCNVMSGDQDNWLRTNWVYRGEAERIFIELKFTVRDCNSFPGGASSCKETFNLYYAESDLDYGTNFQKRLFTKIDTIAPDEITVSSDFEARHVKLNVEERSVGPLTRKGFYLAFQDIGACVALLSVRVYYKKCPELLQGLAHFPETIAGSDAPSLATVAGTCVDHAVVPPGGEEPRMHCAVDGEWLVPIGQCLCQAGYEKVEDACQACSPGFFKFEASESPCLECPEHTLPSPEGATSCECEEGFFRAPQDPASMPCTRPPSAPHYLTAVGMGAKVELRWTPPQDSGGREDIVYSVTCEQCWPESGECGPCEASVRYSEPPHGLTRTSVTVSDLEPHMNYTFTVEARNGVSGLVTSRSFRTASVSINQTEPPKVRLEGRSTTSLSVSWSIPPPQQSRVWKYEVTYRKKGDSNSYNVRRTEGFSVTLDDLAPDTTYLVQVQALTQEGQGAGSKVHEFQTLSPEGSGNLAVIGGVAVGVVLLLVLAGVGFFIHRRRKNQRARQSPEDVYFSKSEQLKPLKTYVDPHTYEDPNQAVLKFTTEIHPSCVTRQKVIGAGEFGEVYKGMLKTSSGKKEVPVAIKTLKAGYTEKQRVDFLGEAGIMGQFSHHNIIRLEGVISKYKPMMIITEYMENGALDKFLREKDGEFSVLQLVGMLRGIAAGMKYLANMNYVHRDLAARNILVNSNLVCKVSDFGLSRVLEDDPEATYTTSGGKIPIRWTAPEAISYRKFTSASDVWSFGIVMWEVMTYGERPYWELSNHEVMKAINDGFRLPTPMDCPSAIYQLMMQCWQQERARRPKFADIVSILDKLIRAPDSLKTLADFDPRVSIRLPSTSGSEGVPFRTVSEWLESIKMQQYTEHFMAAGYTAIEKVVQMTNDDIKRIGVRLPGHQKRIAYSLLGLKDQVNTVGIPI

[6] = test system: MOLT-4 cells; experiment: RNA sequencing of kinase transcript levels; assay type: cell-based, H. sapiens; conditions: MOLT-4, 1 μM
Procedure: With long treatment times (>8 h), it is difficult to distinguish direct degradation of targets from down-regulation caused by downstream or secondary effects.
MOLT-4 cells were seeded into 24 T25 flasks with 10 mL of culture at 10^6 cells/mL prior to compound treatment. […] Cells were harvested using CellStripper™ Dissociation reagent (Corning®), washed twice with PBS, and followed by snap freezing in liquid nitrogen. Total RNA was isolated from cell pellets using the RNeasy® Mini Kit (Qiagen®) following the manufacturer's directions. For quality control, RNA concentration and rRNA ratio (28S/18S) were measured using an Agilent 2100 Bioanalyzer. Samples were submitted to BGI Group for RNA-seq library preparation and Next Generation Sequencing using the BGISEQ-500 platform producing 50 base-pair single-end reads. Sequencing reads were aligned to the human genome (BSgenome.Hsapiens.UCSC.hg19 Bioconductor package, using splicedAlignment=FALSE) and quantified at the level of genes (TxDb.Hsapiens.UCSC.hg19.knownGene Bioconductor package) using the QuasR package with default parameters (Gaidatzis et al., Bioinformatics 31(7):1130-1132 (2015)). Expressed genes were identified using the edgeR Bioconductor package (Robinson et al., Bioinformatics 26(1):139-140 (2010)).

[7] = target: T1, protein kinases (human kinome) (Homo sapiens, UniProt P29323); assay type: cell-based
T1 sequence (P29323 19-1055): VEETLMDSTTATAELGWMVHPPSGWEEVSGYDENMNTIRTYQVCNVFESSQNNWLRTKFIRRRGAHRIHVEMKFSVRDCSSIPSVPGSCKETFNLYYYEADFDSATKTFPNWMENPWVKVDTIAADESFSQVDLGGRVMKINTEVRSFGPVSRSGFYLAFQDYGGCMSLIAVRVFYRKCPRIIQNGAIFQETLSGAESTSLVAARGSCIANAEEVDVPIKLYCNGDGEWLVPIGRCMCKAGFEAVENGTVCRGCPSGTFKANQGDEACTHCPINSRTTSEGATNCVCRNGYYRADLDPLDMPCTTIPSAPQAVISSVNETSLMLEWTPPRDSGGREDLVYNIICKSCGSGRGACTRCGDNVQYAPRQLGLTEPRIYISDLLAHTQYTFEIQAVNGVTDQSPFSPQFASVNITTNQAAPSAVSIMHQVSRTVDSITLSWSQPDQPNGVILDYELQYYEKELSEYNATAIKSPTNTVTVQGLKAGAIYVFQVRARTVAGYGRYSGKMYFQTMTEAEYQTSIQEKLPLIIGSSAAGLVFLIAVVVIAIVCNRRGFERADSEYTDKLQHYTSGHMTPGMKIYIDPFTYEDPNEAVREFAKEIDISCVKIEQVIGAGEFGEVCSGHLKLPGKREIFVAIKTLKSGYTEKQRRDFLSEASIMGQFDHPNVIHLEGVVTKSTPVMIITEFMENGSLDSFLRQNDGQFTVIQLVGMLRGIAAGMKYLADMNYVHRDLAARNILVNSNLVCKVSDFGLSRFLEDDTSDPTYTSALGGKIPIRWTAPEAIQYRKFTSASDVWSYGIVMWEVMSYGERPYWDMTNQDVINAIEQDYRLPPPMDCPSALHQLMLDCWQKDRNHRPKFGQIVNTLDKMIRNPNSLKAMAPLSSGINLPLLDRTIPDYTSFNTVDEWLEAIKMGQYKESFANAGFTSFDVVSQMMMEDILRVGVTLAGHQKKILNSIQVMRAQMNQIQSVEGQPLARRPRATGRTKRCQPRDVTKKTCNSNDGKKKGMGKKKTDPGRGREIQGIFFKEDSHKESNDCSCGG

[8] = target: extended human kinome (kinase-like proteins) (Homo sapiens, UniProt Q9NYY8); experiment: Whole cell quantitative proteomics: extended kinome hits; conditions: Accession Q9NYY8; experiment wp160; 1 hr
extended human kinome (kinase-like proteins) (Homo sapiens, UniProt Q9NYY8), sequence (Q9NYY8 whole entry): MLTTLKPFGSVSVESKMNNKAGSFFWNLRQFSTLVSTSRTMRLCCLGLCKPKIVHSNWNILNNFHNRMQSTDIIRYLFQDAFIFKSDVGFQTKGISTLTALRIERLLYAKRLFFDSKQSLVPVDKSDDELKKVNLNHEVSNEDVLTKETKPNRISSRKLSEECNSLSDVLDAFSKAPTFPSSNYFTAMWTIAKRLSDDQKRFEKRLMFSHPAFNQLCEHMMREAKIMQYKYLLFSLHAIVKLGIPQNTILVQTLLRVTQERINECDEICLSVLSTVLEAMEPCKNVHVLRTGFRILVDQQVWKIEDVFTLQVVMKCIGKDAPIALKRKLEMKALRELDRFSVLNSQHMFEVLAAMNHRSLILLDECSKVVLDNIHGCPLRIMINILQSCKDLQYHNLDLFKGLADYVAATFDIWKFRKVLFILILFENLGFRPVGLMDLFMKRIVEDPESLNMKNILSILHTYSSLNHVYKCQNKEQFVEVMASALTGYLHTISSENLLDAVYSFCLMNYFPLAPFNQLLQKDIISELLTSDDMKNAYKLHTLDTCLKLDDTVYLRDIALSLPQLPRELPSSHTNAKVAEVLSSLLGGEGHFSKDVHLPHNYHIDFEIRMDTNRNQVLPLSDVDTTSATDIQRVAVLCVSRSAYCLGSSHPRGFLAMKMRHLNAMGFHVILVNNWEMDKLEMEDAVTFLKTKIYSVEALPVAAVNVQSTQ

[9] = target: protein kinases (human kinome) (Homo sapiens, UniProt Q8TF76); assay type: cell-based; conditions: experiment wp137
protein kinases (human kinome) (Homo sapiens, UniProt Q8TF76), sequence (Q8TF76 whole entry): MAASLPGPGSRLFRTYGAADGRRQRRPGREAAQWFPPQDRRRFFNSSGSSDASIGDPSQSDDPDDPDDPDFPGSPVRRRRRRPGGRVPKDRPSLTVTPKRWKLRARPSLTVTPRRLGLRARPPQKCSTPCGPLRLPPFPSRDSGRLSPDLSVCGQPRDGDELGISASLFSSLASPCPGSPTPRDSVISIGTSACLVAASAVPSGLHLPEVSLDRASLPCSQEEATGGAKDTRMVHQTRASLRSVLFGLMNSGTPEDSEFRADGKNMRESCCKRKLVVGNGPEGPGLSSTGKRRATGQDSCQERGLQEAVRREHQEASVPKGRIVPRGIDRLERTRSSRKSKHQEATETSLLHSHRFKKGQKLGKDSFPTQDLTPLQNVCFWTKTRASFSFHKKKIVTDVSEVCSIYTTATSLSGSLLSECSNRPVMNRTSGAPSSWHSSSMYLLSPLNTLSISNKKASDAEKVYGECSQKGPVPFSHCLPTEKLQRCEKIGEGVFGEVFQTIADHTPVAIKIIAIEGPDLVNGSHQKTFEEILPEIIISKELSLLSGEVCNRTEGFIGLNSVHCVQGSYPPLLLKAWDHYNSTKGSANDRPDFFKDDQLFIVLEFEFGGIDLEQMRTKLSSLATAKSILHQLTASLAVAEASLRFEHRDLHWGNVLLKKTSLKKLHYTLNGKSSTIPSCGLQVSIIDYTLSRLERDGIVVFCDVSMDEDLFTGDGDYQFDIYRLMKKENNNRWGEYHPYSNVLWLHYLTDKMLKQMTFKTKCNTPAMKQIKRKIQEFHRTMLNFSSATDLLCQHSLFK

[10] = target: protein kinases (human kinome) (Homo sapiens, UniProt P49841); assay type: cell-based
protein kinases (human kinome) (Homo sapiens, UniProt P49841), sequence (P49841 whole entry): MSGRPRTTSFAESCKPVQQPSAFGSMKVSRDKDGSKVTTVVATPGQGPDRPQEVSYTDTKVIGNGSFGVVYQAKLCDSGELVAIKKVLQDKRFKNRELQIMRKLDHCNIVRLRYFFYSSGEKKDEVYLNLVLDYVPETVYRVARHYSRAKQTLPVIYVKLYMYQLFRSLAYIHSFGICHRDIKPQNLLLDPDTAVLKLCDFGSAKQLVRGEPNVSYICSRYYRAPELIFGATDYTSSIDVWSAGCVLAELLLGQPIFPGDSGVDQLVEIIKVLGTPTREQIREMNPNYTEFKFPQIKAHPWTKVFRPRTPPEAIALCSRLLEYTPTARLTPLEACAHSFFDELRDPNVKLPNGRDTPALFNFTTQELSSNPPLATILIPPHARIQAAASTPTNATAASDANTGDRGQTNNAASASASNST

Q: For `Cc1ccc(NC(=O)c2cccc(C(F)(F)F)c2)cc1N1Cc2cnc(Nc3ccc(N4CCN(Cc5cn(CCCCCOc6cccc7c6C(=O)N(C6CCC(=O)NC6=O)C7=O)nn5)CC4)nc3)nc2N(C)C1=O` (stereo not shown) [DB0646, N-(3-(7-((6-(4-((1-(5-((2-(2,6-Dioxopiperidin-3-yl)-1,3-dioxoisoindolin-4-yl)oxy)pentyl)-1H-1,2,3-triazol-4-yl)methyl)piperazin-1-v)pyridin-3-yl)amino)-1-methyl-2-oxo-1,4-dihydropyrimido[4,5-d]pyrimidin-3(2H)-yl)-4-methylphenyl)-3-(trifluoromethyl)benzamide], which “logFC PFKFB3” value [1] is on record?
A: −0.377

Q: What about the “CSK degradation rescue on p97 inhibition” value [2] of the same compound?
A: very little degradation rescue

Q: With `Cc1ncsc1-c1ccc([C@H](C)NC(=O)[C@@H]2C[C@@H](O)CN2C(=O)[C@@H](NC(=O)CCOCCOCCN2CCN(c3ccc(Nc4ncc(Cl)c(Nc5ccccc5S(=O)(=O)C(C)C)n4)cc3)CC2)C(C)(C)C)cc1` [FMF.06.098.1] as the compound, how does the “logFC MELK (Q14680)” value ([3]; direction of change down) read?
A: −0.38

Q: And the “logFC MELK” value ([3]; protein MELK (Q14680), down)?
A: −0.38

Q: What does the source list for `O=C1CCC(N2C(=O)c3cccc(NCCCCCCCCN4CCC(NC(=O)c5[nH]ncc5NC(=O)c5c(Cl)cccc5Cl)CC4)c3C2=O)C(=O)N1` (stereo not shown) [MFH.5.126.1]?
A: logFC PIK3CG (P48736) ([4]; Experiment wp076, direction of change down): −0.3735; logFC ([4]; PIK3CG (P48736), experiment wp076): −0.3735

Q: What does the source list for `Cc1ccc(C(=O)Nc2ccc(CN3CCN(CCCOCCOCCOCCNC(=O)COc4cccc5c4C(=O)N(C4CCC(=O)NC4=O)C5=O)CC3)c(C(F)(F)F)c2)cc1C#Cc1cnc2cccnn12` (stereo not shown) [SB1.G.187]?
A: logFC ([5]; experiment wp114): −0.401; logFC ([5]; experiment wp172): −0.4107; logFC of EPHA2 (P29317) ([5]; Experiment wp114): −0.401; logFC of EPHA2 (P29317) ([5]; Experiment wp172): −0.4107

Q: Which transcript levels ([6]; 8- and 12-h time points) does the source give for `CC(C)S(=O)(=O)c1ccccc1Nc1nc(Nc2ccc(N3CCN(CCOCCNC(=O)CNc4cccc5c4C(=O)N(C4CCC(=O)NC4=O)C5=O)CC3)cc2)ncc1Cl` (stereo not shown) [SK-3-91] here?
A: complete transcriptional collapse

Q: And the transcript levels ([6]; up until the 4-h time point)?
A: largely unchanged

Q: Which logFC ([7]; EPHB2 (P29323), experiment wp107) does the source give for `CC(C)S(=O)(=O)c1ccccc1Nc1nc(Nc2ccc(N3CCN(CCOCCNC(=O)CNc4cccc5c4C(=O)N(C4CCC(=O)NC4=O)C5=O)CC3)cc2)ncc1Cl` (stereo not shown) [SK.3.91] here?
A: −0.6293

Q: And the “logFC of EPHB2 (P29323)” value ([7]; Experiment wp107)?
A: −0.6293

Q: What about the “logFC FASTKD2” value [8] of the same compound?
A: −1

Q: For `CC(C)S(=O)(=O)c1ccccc1Nc1nc(Nc2ccc(N3CCN(CCOCCOCCNC(=O)CNc4cccc5c4C(=O)N(C4CCC(=O)NC4=O)C5=O)CC3)cc2)ncc1Cl` (stereo not shown) [TL12.186], which “logFC HASPIN (Q8TF76-1)” value ([9]; direction of change down) is on record?
A: −0.368

Q: And the “logFC HASPIN” value ([9]; protein HASPIN (QSTF76-1), down)?
A: −0.368

Q: For `Nc1ncc(-c2ccc(S(=O)(=O)N(CCCNC(=O)CCOCCOCCOCCOCCOCCNc3cccc4c3C(=O)N(C3CCC(=O)NC3=O)C4=O)C3CC3)cc2)cc1-c1ccc2c(c1)CCNC2=O` (stereo not shown) [WH.10417.099], which “logFC GSK3B” value ([10]; Accession P49841-1, experiment wp172, direction down) is on record?
A: −0.8298

Q: And the “logFC of GSK3B (P49841-1)” value ([10]; Experiment wp172)?
A: −0.8298
